# Laboratory results as given in US20190248779A1, “COMPOUNDS, COMPOSITIONS, AND METHODS FOR INCREASING CFTR ACTIVITY” (Proteostasis Therapeutics, Inc., priority 2016, published 2019).
# Target: T1, ΔF508-CFTR (Homo sapiens, UniProt P13569, DEL508-508)
# T1 construct: Primary lung epithelial cells homozygous for the Cystic Fibrosis-causing ΔF508 mutation were differentiated for a minimum of 4 weeks; endogenous in cells; host or cells: primary lung (bronchial) epithelial cells (hBE) homozygous for ΔF508, differentiated at an air-liquid interface
# T1 sequence (P13569 with tags, fused parts or gaps DEL508-508): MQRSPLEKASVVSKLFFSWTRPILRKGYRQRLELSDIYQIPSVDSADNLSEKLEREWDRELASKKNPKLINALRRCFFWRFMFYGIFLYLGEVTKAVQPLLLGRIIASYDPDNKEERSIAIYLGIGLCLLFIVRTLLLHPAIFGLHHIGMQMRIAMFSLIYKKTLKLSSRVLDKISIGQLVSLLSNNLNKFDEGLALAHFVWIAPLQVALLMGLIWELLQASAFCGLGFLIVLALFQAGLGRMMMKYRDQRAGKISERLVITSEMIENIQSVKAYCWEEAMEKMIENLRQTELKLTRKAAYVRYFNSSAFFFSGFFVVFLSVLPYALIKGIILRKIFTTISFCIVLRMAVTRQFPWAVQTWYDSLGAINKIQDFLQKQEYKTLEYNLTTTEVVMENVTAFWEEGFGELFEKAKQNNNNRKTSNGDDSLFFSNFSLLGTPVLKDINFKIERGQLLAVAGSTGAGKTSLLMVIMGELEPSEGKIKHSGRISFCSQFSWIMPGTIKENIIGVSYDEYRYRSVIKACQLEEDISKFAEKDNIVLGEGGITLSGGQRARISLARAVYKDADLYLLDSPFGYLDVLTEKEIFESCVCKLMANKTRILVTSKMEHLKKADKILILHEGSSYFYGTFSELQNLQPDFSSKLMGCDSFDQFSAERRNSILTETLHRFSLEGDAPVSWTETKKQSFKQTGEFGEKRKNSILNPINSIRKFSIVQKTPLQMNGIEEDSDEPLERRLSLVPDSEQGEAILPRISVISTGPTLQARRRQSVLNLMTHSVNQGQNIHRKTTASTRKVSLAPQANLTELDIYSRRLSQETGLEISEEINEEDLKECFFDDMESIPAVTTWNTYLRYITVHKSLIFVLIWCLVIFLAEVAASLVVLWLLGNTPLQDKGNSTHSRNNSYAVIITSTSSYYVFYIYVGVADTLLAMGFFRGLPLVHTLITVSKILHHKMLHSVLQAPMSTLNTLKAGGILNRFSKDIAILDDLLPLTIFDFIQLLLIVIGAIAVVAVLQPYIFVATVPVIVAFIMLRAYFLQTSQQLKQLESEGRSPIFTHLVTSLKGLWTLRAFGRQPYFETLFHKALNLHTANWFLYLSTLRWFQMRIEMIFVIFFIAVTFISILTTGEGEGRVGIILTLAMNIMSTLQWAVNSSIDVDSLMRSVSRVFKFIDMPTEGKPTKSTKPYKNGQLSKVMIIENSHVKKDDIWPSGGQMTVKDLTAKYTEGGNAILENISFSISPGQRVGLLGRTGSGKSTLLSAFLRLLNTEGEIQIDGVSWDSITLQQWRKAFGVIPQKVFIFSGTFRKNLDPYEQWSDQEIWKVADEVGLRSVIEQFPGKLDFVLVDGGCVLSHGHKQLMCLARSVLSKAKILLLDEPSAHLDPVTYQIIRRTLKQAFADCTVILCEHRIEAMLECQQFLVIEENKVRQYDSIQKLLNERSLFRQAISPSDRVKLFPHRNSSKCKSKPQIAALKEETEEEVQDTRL
# Assay: hBE equivalent current (Ieq) assay
# Assay type: cell-based
# Conditions: compound at 3 μM, 24 h; relative to a CFTR amplifier at 3 uM; AUC of equivalent chloride current; primary lung epithelial cells homozygous for ΔF508
# Protocol: ii. hBE Equivalent Current (Ieq) Assay
# Primary lung epithelial cells homozygous for the Cystic Fibrosis-causing ΔF508 mutation were differentiated for a minimum of 4 weeks in an air-liquid interface on Costar 24 well HTS filter plates prior to the equivalent current (Ieq) measurements. Cells were apically mucus-washed for 30 minutes 24 h prior to treatment with compounds. The basolateral media was removed and replaced with media containing the compound of interest diluted to its final concentration from DMSO stocks. Treated cells were incubated at 37° C. and 5% CO2 for 24 hours. At the end of the treatment period, the media was changed to the Ieq experimental solution for 2 hours before the experiment and plates are maintained in a CO2-free incubator during this period. The plates containing the cells were then placed in pre-warmed heating blocks at 36° C.±0.5 for 15 minutes before measurements are taken. The transepithelial voltage (VT) and conductance (GT) were measured using a custom 24 channel current clamp (TECC-24) with 24 well electrode manifold. The Ieq assay measurements were made following additions with standardized time periods:
# 1. The baseline VT and GT values were measured for approximately 20 minutes.
# 2. Benzamil was added to block ENaC for 15 minutes.
# 3. Forskolin plus VX-770 were added to maximally activate ΔF508-CFTR for 27 minutes.
# 4. Bumetanide was added to inhibit the NaK2Cl cotransporter and shut-off secretion of chloride.
# The activity data captured was the area under the curve (AUC) for the traces of the equivalent chloride current. The AUC was collected from the time of the forskolin/VX-770 addition until the inhibition by bumetanide addition. Correction in response to compound treatment was scored as the increase in the AUC for compound-treated samples over that of vehicle-treated samples.
# The results are shown below in Table 1. + indicates activity <150% of a CFTR amplifier with compound at concentration shown and amplifier at 3 uM; ++ indicates activity >150% of a CFTR amplifier with compound at concentration shown and amplifier at 3 uM.
row,Compound,Activity 3 μM
1,"COc1cccc(-c2ccc(=O)n(C(C)C(=O)Nc3ccc(C(F)(F)F)cc3)n2)n1 (centres unmarked) [Compound 22, 2-(3-(6-Methoxypyridin-2-yl)-6-oxopyridazin-1(6H)-yl)-N-(4-(trifluoromethyl)phenyl)propanamide]",++ (activity >150% of a CFTR amplifier with compound at concentration shown and amplifier at 3 uM)

# Same assay, conditions: compound at 10 μM, 24 h; relative to a CFTR amplifier at 3 uM; AUC of equivalent chloride current; primary lung epithelial cells homozygous for ΔF508
row,Compound,Activity 10 μM
1,"COc1ccnc(-c2ccc(=O)n(C(C)C(=O)Nc3ccc(C(F)(F)F)cc3)n2)c1 (centres unmarked) [Compound 21, 2-(3-(4-Methoxypyridin-2-yl)-6-oxopyridazin-1(6H)-yl)-N-(4-(trifluoromethyl)phenyl)propanamide]",+ (activity <150% of a CFTR amplifier with compound at concentration shown and amplifier at 3 uM)
2,"COc1cccc(-c2ccc(=O)n(C(C)C(=O)Nc3ccc(C(F)(F)F)cc3)n2)n1 (centres unmarked) [Compound 22, 2-(3-(6-Methoxypyridin-2-yl)-6-oxopyridazin-1(6H)-yl)-N-(4-(trifluoromethyl)phenyl)propanamide]",+ (activity <150% of a CFTR amplifier with compound at concentration shown and amplifier at 3 uM)
3,"CC(C(=O)Nc1ccc(C(F)(F)F)cc1)n1nc(-c2cc(Cl)cs2)ccc1=O (centres unmarked) [Compound 23, 2-(3-(4-Chlorothiophen-2-yl)-6-oxopyridazin-1(6H)-yl)-N-(4-(trifluoromethyl)phenyl)propanamide]",++ (activity >150% of a CFTR amplifier with compound at concentration shown and amplifier at 3 uM)
4,"CC(C(=O)Nc1ccc(C(F)(F)F)cc1)n1nc(-c2ccsc2Cl)ccc1=O (centres unmarked) [Compound 24, 2-(3-(2-Chlorothiophen-3-yl)-6-oxopyridazin-1(6H)-yl)-N-(4-(trifluoromethyl)phenyl)propanamide]",++ (activity >150% of a CFTR amplifier with compound at concentration shown and amplifier at 3 uM)
5,"CC(C(=O)Nc1ccc(C(F)(F)F)cc1)n1nc(-c2cc(Cl)sc2Cl)ccc1=O (centres unmarked) [Compound 25, 2-(3-(2,5-Dichlorothiophen-3-yl)-6-oxopyridazin-1(6H)-yl)-N-(4-(trifluoromethyl)phenyl)propanamide]",+ (activity <150% of a CFTR amplifier with compound at concentration shown and amplifier at 3 uM)
6,"CC(C(=O)Nc1ccc(C(F)(F)F)cc1)n1nc(-c2csc(Cl)n2)ccc1=O (centres unmarked) [Compound 26, 2-[3-(2-Chloro-1,3-thiazol-4-yl)-6-oxo-1,6-dihydropyridazin-1-yl]-N-[4-(trifluoromethyl)phenyl]propanamide]",+ (activity <150% of a CFTR amplifier with compound at concentration shown and amplifier at 3 uM)
7,"CC(C(=O)Nc1ccc(C(F)(F)F)cc1)n1nc(-c2cnc(Cl)s2)ccc1=O (centres unmarked) [Compound 27, 2-[3-(2-Chloro-1,3-thiazol-5-yl)-6-oxo-1,6-dihydropyridazin-1-yl]-N-[4-(trifluoromethyl)phenyl]propanamide]",+ (activity <150% of a CFTR amplifier with compound at concentration shown and amplifier at 3 uM)
